# Where two headings read alike, the source gives them in different places.
# Tests used:
# Assay type in all cases: cell-based
# alpha2B receptor = target: T1, alpha2B receptor (Homo sapiens, UniProt P18089); assay: RSAT assay, alpha 2B; conditions: for (rel. efficacy) Alpha 2B: ratio of maximal effect to standard full agonist brimonidine (UK14304)
# T1 construct: expressed in transfected cells; host or cells: NIH-3T3
# T1 sequence (P18089 1-450): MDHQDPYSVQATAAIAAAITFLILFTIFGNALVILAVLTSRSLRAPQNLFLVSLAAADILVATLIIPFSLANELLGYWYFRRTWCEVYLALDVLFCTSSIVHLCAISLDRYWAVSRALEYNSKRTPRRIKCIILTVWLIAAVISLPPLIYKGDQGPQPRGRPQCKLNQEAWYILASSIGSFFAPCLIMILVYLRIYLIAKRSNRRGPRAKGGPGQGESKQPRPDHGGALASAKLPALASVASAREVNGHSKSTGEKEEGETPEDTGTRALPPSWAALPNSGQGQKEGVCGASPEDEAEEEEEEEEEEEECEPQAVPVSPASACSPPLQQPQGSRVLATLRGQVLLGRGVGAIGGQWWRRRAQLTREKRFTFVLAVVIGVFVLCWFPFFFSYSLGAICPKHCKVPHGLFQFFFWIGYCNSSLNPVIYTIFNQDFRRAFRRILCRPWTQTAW
# Procedure: (§1) Selected presently described compounds were synthesized and tested for alpha adrenergic activity using the Receptor Selection and Amplification Technology (RSAT) assay. Cells expressing each of the alpha-2-adrenergic receptors alone were incubated with various compounds and a receptor-mediated growth response was measured. The compound's activity is expressed as its relative efficacy compared to a standard full agonist.
# (§2) The RSAT assay measures a receptor-mediated loss of contact inhibition that results in selective proliferation of receptor-containing cells in a mixed population of confluent cells. The increase in cell number is assessed with an appropriate transfected marker gene such as β-galactosidase, the activity of which can be easily measured in a 96-well format. Receptors that activate the G protein, Gq, elicit this response. Alpha2 receptors, which normally couple to Gi, activate the RSAT response when coexpressed with a hybrid Gq protein that has a Gi receptor recognition domain, called Gq/i5.
# (§3) NIH-3T3 cells are plated at a density of 2×10^6 cells in 15 cm dishes and maintained in Dulbecco's modified Eagle's medium supplemented with 10% calf serum. One day later, cells are cotransfected by calcium phosphate precipitation with mammalian expression plasmids encoding p-SV-β-galactosidase (5-10 μg), receptor (1-2 μg) and G protein (1-2 μg). 40 μg salmon sperm DNA may also be included in the transfection mixture. Fresh media is added on the following day and 1-2 days later, cells are harvested and frozen in 50 assay aliquots. Cells are thawed and […] added to […] aliquots of various concentrations of drugs in triplicate in 96-well dishes. Incubations continue 72-96 hr at 37° C. After washing with phosphatebuffered saline, β-galactosidase enzyme activity is determined by adding 200 μl of the chromogenic substrate (consisting of 3.5 mM o-nitrophenyl-β-D-galactopyranoside and 0.5% nonidet P-40 in phosphate buffered saline), incubating overnight at 30° C. and measuring optical density at 420 nm. The absorbance is a measure of enzyme activity, which depends on cell number and reflects a receptor-mediated cell proliferation. The EC50 and maximal effect of each drug at each alpha2 receptor is determined. The efficacy or intrinsic activity is calculated as a ratio of the maximal effect of the drug to the maximal effect of a standard full agonist for each receptor subtype. Brimonidine, also called UK14304, is used as the standard agonist for the alpha2A, alpha2B, and alpha2C receptors.
# (§4) The compounds activity is expressed as its relative efficacy compared to a standard full agonist.
# alpha2C receptor = target: T2, alpha2C receptor (Homo sapiens, UniProt P18825); assay: RSAT assay, alpha 2C; conditions: for (rel. efficacy) Alpha 2C: ratio of maximal effect to standard full agonist brimonidine (UK14304)
# T2 construct: expressed in transfected cells; host or cells: NIH-3T3
# T2 sequence (P18825 1-462): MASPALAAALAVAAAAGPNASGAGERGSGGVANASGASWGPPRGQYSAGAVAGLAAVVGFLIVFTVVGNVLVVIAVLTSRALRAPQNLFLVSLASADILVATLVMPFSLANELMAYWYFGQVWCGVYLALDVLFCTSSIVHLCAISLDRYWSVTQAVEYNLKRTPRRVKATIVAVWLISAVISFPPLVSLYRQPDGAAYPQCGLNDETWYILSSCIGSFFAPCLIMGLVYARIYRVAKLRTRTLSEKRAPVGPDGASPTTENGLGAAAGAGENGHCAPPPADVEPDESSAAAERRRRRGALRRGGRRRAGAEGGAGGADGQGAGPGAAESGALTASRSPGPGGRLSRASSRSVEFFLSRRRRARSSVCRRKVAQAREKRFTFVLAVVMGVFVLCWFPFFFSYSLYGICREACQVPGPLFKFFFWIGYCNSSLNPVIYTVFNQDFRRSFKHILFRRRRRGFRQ
# Procedure: as §1, §2, §3, §4
# alpha2A receptor = target: T3, alpha2A receptor (Homo sapiens, UniProt P08913); assay: RSAT assay, alpha 2A; conditions: for (rel. efficacy) Alpha 2A: ratio of maximal effect to standard full agonist brimonidine (UK14304)
# T3 sequence (P08913 1-465): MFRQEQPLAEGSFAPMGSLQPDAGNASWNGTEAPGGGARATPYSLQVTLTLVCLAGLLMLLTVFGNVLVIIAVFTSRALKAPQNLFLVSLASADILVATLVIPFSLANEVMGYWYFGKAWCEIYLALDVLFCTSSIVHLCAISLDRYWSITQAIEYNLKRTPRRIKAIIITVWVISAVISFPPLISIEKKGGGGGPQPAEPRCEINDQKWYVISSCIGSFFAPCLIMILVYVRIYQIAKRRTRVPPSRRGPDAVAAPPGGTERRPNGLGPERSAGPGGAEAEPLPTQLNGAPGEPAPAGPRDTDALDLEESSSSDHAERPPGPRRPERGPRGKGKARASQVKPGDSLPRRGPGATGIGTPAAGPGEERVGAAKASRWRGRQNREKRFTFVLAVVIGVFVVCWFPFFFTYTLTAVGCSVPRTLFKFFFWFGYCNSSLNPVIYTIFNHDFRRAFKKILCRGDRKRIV
# Procedure: as §1, §2, §3, §4
# [1] = RSAT, NIH-3T3 cells, NA = not active, read-out: EC50 (nM) Alpha 2C
# [2] = RSAT, NIH-3T3 cells, NA = not active, read-out: EC50 (nM) Alpha 2B
# [3] = RSAT, NIH-3T3 cells, NA = not active, read-out: EC50 (nM) Alpha 2A
Compound,EC50 (alpha2B receptor) [nM],(rel. efficacy) Alpha 2B (alpha2B receptor; RSAT),EC50 (alpha2C receptor) [nM],(rel. efficacy) Alpha 2C (alpha2C receptor; RSAT),EC50 (alpha2C receptor; [1]) [nM],EC50 (alpha2B receptor; [2]) [nM],EC50 (alpha2A receptor) [nM],(rel. efficacy) Alpha 2A (alpha2A receptor; RSAT),EC50 (alpha2A receptor; [3]) [nM]
FC(F)Oc1ccccc1CNC1=NCCO1,34,0.83,13,0.74,–,–,–,–,–
Fc1ccc(Br)cc1CNC1=NCCO1,18,0.89,–,0.63,186,–,–,–,–
Clc1cccc(CNC2=NCCS2)c1,42,0.99,–,0.48,504,–,–,–,–
Clc1cccc(CNC2=NCCS2)c1Br,40,0.85,–,0.68,303,–,–,–,–
Brc1ccccc1CNC1=NCCO1,5,1.09,85,0.85,–,–,–,–,–
Fc1cccc(CNC2=NCCO2)c1,39,0.82,17,0.59,–,–,–,–,–
Clc1ccc(Br)cc1CNC1=NCCS1,–,0.9,–,0.56,1330,296,–,–,–
Brc1ccccc1CNC1=NCCS1,29,0.84,190,0.77,–,–,2780,0.37,–
Cc1cc(Br)c(F)c(CNC2=NCCS2)c1,–,1.04,–,0.62,803,168,–,–,–
Cc1cccc(CNC2=NCCO2)c1C,2,1.09,11,0.83,–,–,–,–,–
Fc1c(Cl)cccc1CNC1=NCCS1,107,1.01,535,0.7,–,–,–,–,–
Fc1c(I)cccc1CNC1=NCCS1,6,1.0,88,1.05,–,–,–,1.07,589
FC(F)(F)c1cccc(CNC2=NCCS2)c1Cl,–,1.08,–,0.46,854,101,–,–,–
Cc1cc(Cl)cc(CNC2=NCCS2)c1F,351,0.96,1250,0.51,–,–,–,–,–
Fc1c(Cl)cccc1CNC1=NCCO1 [drawing 19],10,1.09,22,0.85,–,–,–,–,–
Clc1cccc(CNC2=NCCS2)c1Cl,28,0.94,252,0.68,–,–,–,–,–
Clc1ccc(Br)c(CNC2=NCCS2)c1,–,1.04,–,0.69,855,250,–,0.45,2270
Fc1ccc(Br)c(CNC2=NCCO2)c1,4,1.05,29,0.71,–,–,–,–,–
Clc1ccc(Br)cc1CNC1=NCCO1,20,0.98,81,0.71,–,–,–,–,–

Compound,EC50 (alpha2B receptor) [nM],(rel. efficacy) Alpha 2B (alpha2B receptor; RSAT),EC50 (alpha2C receptor) [nM],(rel. efficacy) Alpha 2C (alpha2C receptor; RSAT),EC50 (alpha2C receptor; [1]) [nM],EC50 (alpha2B receptor; [2]) [nM],EC50 (alpha2A receptor) [nM],(rel. efficacy) Alpha 2A (alpha2A receptor; RSAT),EC50 (alpha2A receptor; [3]) [nM]
Fc1ccc(Cl)c(F)c1CNC1=NCCO1,57,0.93,–,0.52,356,–,–,–,–
Clc1cccc(CNC2=NCCO2)c1Cl,5,1.05,92,0.91,–,–,–,–,–
Fc1c(CNC2=NCCS2)cccc1C(F)(F)F,184,0.99,1430,0.73,–,–,–,–,–
FC(F)Oc1cccc(CNC2=NCCO2)c1,–,0.6,60,0.49,–,217,–,–,–
COc1ccccc1CNC1=NCCO1 [drawing 17],13.4,1.09,–,0.53,181,–,–,–,–
Fc1ccc(Br)cc1CNC1=NCCS1,–,0.85,–,0.64,2060,280,–,–,–
Clc1ccccc1CNC1=NCCO1,3.3,1.02,42,0.83,–,–,–,–,–
COc1ccccc1CNC1=NCCS1 [drawing 16],–,–,1550,0.74,–,–,–,–,–
Fc1c(Br)cccc1CNC1=NCCS1,34,0.98,182,0.64,–,–,1380,0.44,–
COc1c(Cl)cccc1CNC1=NCCS1,22,1.08,99,0.73,–,–,701,0.38,–
Brc1cccc(CNC2=NCCS2)c1,75,0.84,459,0.5,–,–,–,–,–
COc1ccc(Cl)cc1CNC1=NCCS1,77,0.85,–,0.55,465,–,–,0.38,2250
Brc1cccc(CNC2=NCCO2)c1,12,1.0,83,0.59,–,–,–,–,–
Cc1c(Cl)cccc1CNC1=NCCS1,40,0.99,401,0.72,–,–,–,–,–
FC(F)(F)c1ccccc1CNC1=NCCO1,31,0.97,21,0.8,–,–,–,–,–
Fc1ccc(Br)c(CNC2=NCCS2)c1,73,0.97,452,0.67,–,–,–,–,–
Clc1ccccc1CNC1=NCCS1,50,0.85,–,0.66,699,–,–,–,–
FC(F)(F)c1cccc(CNC2=NCCO2)c1Cl,5,0.96,–,0.81,189,–,–,–,–

# From patent US8329918B2, “Selective alpha 2B/2C agonists” (priority 2009, dated 2012)
